Where two headings read alike, the source gives them in different places.
Experiments:
[1] = Compound solubility in DMSO; assay type: physicochemical
AU565 = experiment: SBH cell AU565; assay type: cell-based; conditions: AU565 cells
[2] = tested on: AU565 (breast cancer ER−/PR−, her2−nue+); experiment: Cell proliferation assay, AU565; assay type: cell-based
Protocol: Cells: AU565 (breast cancer ER^−/PR^−, her2^−nue^+) • 1. Cells were resuspended in media containing 10% FBS and 2× gentamicin. Resuspended cells were transferred to an assay plate (100 μL aliquots; 5,200 cells/well). • 2. test compound(s) were serially diluted in assay media. Aliquots of 100 μLof the test compound solution was added to the resuspended cells, creating a total volume of 200 μL. • 3. Plates were incubated at 37 C for 91 hours. • 4. 20 μL of Promega Substrate CellTiter 96 Aqueous One Solution Reagent was added to each well. • 5. Plates were incubated at 37 C and read at 490 nm.

eIF4E/eIF4G interaction = eIF4E/eIF4G interaction (Homo sapiens, UniProt P06730); experiment: Fluorescence polarization (FP) assay of eIF4E/eIF4G interaction; assay type: binding
Protocol: The effect of the bound compound on the activity of eIF4e was further addressed using a Fluorescence Polarization (FP) assay. The FP assay was used to monitor the eIF4E/eIF4G interaction. The eIF4E/eIF4G complex was exposed to Structure 10, and the dissociation of eIF4G from eIF4E was measured using the FP assay.
18 amino acid FITC-labeled 4G peptide (Moerke, N. et al., Cell, 128:257-67, 2007).
Compounds as 12.5 mM solutions in DMSO
A master mixture of 20 nM peptide, 400 μM recombinant […] in NMR buffer was made. 240 μL of this master mix was transferred to a separate tube and 3.2 μL of DMSO was added. 30 μL aliquots of this mixture was then added to each of six wells of 384-well black plate. These are the maximum polarization wells. The minimum polarization wells were determined using peptide only at a concentration of 20 nM. The experimental wells were created by adding 3.2 μL of each 12.5 mM solution of a test compound to the master mixture. The compound mixtures were serially diluted to create a six point dose response curve (with six different concentrations of each test compound).
The triplicate averages of the readings were determined. […] The activity of compound at each concentration was determined by comparing the FP signal in the presence of compound to the control (no compound) value. The percent inhibition is =100−((FP compound/FP control)×100).

polysomes = experiment: Polysome profile; assay type: cell-based; conditions: sucrose gradient, FIG. 11
Protocol: Cells, plated in 140 mm culture dishes; in mid log phase of growth (4-5 plates per treatment. Test compounds as 40 mM master solutions in DMSO Lysis buffer: 15 mM Tris pH 7.4, 15 mM MgCl2, 150 mM NaCl, 1% TritonX-100, 100 μg/mL cycloheximide, 1 mg/mL Heparin. Polysome buffer: 15 mM Tris pH7.4, 15 mM MgCl2, 150 mM NaCl, 100 μg/mL cycloheximide. • 1. Cells were incubated with the desired concentrations of each compound for 2 hours. • 2. Cells were incubated with 100 μg/mL cycloheximide in media for 5 min at 37 C, after which the media was removed from the late, and the plate was put on ice. • 3. Cells were washed twice with 5 mL PBS+100 μg/mL CHX. • 4. Cells were harvested, resuspended in 375 μl of LSB with 1 mM DTT and 100 U/mL RNAsin. • 5. 125 μL of lysis buffer was added, and the cells were subjected to 10 strokes in a homgenizer. • 6. The lysed cells were spun to remove cellular debris, and the supernatant was transferred to fresh tubes. • 7. 15 μL of 5M NaCl and 50 μL of 10 mg/mL Heparin was added. A 20 μL aliquot was taken and stored. The remainder of the supernatant mixture was taken to a volume of 1 mL and the OD260/280 was read. • 8. Aliquots of the supernatant mixture were then applied to a 15-50% sucrose gradient and spun for 105 minutes. The sucrose gradient was then fractionated and the OD254 was measured. […]

HeLa Cells = HeLa Cells FQ IC50; assay type: cell-based
Protocol: Exposed tryptophan side chains are measured in a spectrometer. Tryptophan, when excited at 280 nm, emits light at 350 nm. The degree to which tryptophan emissions are quenched is a measure of binding of a test compound to eIF4E, as tryptophan side chains become “buried” upon compound binding.
HeLa cells were transfected with a bicistronic dual luciferase construct (2×EMCV Luc Plasmid-firefly and EMCV IRES dependent Renilla luciferase). One reporter construct was CAP-dependent, and the other was not. The cells were treated with DMSO in the presence or absence of various compounds described herein for 10 hours (compounds shown are in 50 μM serial dilutions). Cells were evaluated for Luc activity according to the Promega Dual Glo manufacturer instructions.

eIF4E = eIF4E (Homo sapiens, UniProt P06730); experiment: Binding to eIF4E demonstrated by NMR; conditions: FIG. 7
[3] = tested on: CRL-2813 human melanoma xenografts; experiment: CRL-2813 human melanoma xenografts, protein expression (immunostaining); assay type: in vivo, mice
Protocol: • 1. CRL-2813 cancer cells were grown to obtain ≈5×10^6 cells for each tumor. • 2. Cells were harvested and washed in PBS. • 3. Harvested and washed cells were resuspended in 50% Matrigel™/medium at a density of ≈5×10^6 cells in 100 μL. • 4. 100 μL of the cell suspension was injected subcutaneously • 5. Tumors were grown to ≈150 mm^3 (approx. 2 weeks). • 1. Mice were randomly distributed to treatment and control groups and observed daily. • 2. A test compound or vehicle alone was injected twice daily with at least 10 hrs time interval between doses • Note: Vehicle: corn oil. Drug solution: 35 mg/mL of compound first dissolved in ethanol, mixed with corn oil followed by ethanol evaporation. Dosage: each dose=125 μL vehicle or drug suspension i.p. • 3. Tumor volume was measured weekly. • 4. At the conclusion of experiment, mice were sacrificed, and tumors were removed and weighed. • 5. Remove tumor and weigh • 6. The removed tumors were fixed in formalin solution or flash frozen and processed for histology/immunocytochemistry, or pull-down.
4EGI-1 inhibits expression of oncogenic proteins in melanoma tumors. CRL-2813 human melanoma xenografts were immunostained with antibodies specific for cyclin D1, cyclin E, c-myc, Bcl-2, VEGF or PCNA (FIG. 13). The bar graph is the quantification of immunostaining data (FIG. 14).

[4] = AU-565 cells, read-out: AU-565 EC50
[5] = fluorescence polarization, some cells give words
[6] = AU-565, 91 hours, read-out: ED50 (μM), anti-proliferative activity against AU-565

Sequence of eIF4E/eIF4G interaction (P06730 whole entry, species assumed): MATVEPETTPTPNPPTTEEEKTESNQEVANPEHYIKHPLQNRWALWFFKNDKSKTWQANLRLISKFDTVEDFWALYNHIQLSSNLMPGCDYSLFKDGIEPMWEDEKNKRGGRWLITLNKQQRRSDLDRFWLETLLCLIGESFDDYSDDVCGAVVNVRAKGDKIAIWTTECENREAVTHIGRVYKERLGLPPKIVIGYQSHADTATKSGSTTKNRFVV
Sequence of eIF4E (P06730 whole entry, species assumed): as above

## COC(=O)CN(C)C(=O)c1nn(-c2nc(-c3cccc(OC)c3)c(C(C)C)s2)c2ccc(C(F)(F)F)cc12 [Structure 46]
[1]
  Compound Solubility DMSO: little/no
AU565
  EC50: 18 to 28 µM

## COc1cccc(-c2nc(-n3nc(C(=O)c4nn[nH]n4)c4cc(C(F)(F)F)ccc43)sc2C(C)C)c1 [Structure 13]
[1]
  Compound Solubility DMSO: complete
AU565
  EC50: 9 to 14 µM

## COc1cccc(-c2nc(-n3nc(C(=O)O)c4cc(C#N)ccc43)sc2C(C)C)c1 [Structure 3]
[2]; [4]
  EC50: 16 to 25 µM
eIF4E/eIF4G interaction
  activity in fluorescence polarization assays: showed activity

## CCOC(=O)CNC(=O)c1nn(-c2nc(-c3cccc(OC)c3)c(C(C)C)s2)c2ccc(C(F)(F)F)cc12 [Structure 47]
[1]
  Compound Solubility DMSO: complete
AU565
  SBH cell AU565 (μM): none

## COC(=O)CNC(=O)c1nn(-c2nc(-c3cccc(OC)c3)c(C(C)C)s2)c2ccc(C(F)(F)F)cc12 [Structure 45]
[1]
  Compound Solubility DMSO: half/less
AU565
  SBH cell AU565 (μM): low

## COc1ccc(C[C@H](N)C(=O)N[C@H]2[C@@H](O)[C@H](n3cnc4c(N(C)C)ncnc43)O[C@@H]2CO)cc1 [puromycin]
polysomes
  polysome density: noticeable difference

## COc1cccc(-c2nc(-n3nc(CC(=O)N(C)CC(=O)O)c4cc(Cl)ccc43)sc2C(C)C)c1 [Structure 16]
eIF4E/eIF4G interaction; [5]
  FP EC50 (μM): good
[1]
  Compound Solubility DMSO: complete
AU565
  EC50: 5.3 to 8 µM

## CCc1sc(-n2nc(C(=O)O)c3cc(C(F)(F)F)ccc32)nc1-c1cccc(OC)c1 [Structure 1]
[2]; [6]
  EC50: 8.5 to 12.8 µM
[2]; AU-565, at 40 μM
  % Growth Inhibition/μM: 70/40%

## COc1cccc(-c2nc(Cn3nc(C(=O)O)c4cc(C(F)(F)F)ccc43)sc2C(C)C)c1 [Structure 9]
eIF4E/eIF4G interaction; [5]
  EC50: 24 to 36 µM

## O=C(O)/C(Cc1ccccc1[N+](=O)[O-])=N\Nc1nc(-c2ccc(Cl)c(Cl)c2)cs1 [Structure 4EGI-1Z, reference compound]
[2]; [6]
  EC50: 4.8 to 7.1 µM
[2]; AU-565, at 10 μM
  % Growth Inhibition/μM: 30/10%
HeLa Cells
  IC50: 26.6 µM

## COc1cccc(-c2nc(-n3cc(C(=O)N4CCNCC4)c4cc(C(F)(F)F)ccc43)sc2C(C)C)c1 [Structure 10]
[2]; Homo sapiens, AU565, AU-565, 91 hours, read-out: ED50 (μM), anti-proliferative activity against AU-565
  EC50: 1.2 to 1.8 µM
[2]; Homo sapiens, AU565, AU-565, at 3.1 μM, read-out: % Growth Inhibition/μM
  inhibition at 3.1 µM: 85%
eIF4E
  Binding to eIF4E by NMR: demonstrated

## O=C(O)/C(Cc1ccccc1[N+](=O)[O-])=N/Nc1nc(-c2ccc(Cl)c(Cl)c2)cs1 [Structure 4EGI-1, 4EGI-1]
[3]; cyclin D1, cyclin E, c-myc, Bcl-2, VEGF or PCNA immunostaining
  expression of oncogenic proteins in melanoma tumors: inhibits
[3]; xenograft model, FIG. 14
  housekeeping proteins (e.g., actin and tubulin): unaffected
  translation of mRNA for growth-promoting and oncogenic proteins: down-regulates
polysomes
  polysome density: noticeable difference

## COc1cccc(-c2nc(-n3nc(C(=O)O)c4cc(C(F)(F)F)ccc43)sc2C(C)C)c1 [Structure 2]
[2]; [6]
  EC50: 5.6 to 8.4 µM
[2]; AU-565, at 40 μM
  % Growth Inhibition/μM: 79/40%
[2]; [4]
  EC50: 9.1 µM

## COc1cccc(-c2nc(-n3nc(CC(=O)O)c4cc(Cl)ccc43)sc2C(C)C)c1 [Structure 14]
[1]
  Compound Solubility DMSO: complete
AU565
  EC50: 21 to 31 µM

## COc1cccc(-c2nc(-n3nc(CC(=O)NCC(=O)O)c4cc(Cl)ccc43)sc2C(C)C)c1 [Structure 15]
eIF4E/eIF4G interaction; [5]
  FP EC50 (μM): some
[1]
  Compound Solubility DMSO: complete
AU565
  EC50: 28 to 41 µM

## CCc1sc(-n2nc(C(=O)O)c3cc(C(F)(F)F)ccc32)nc1-c1cccc(OC)c1 [Structure 17]
[2]; [4]
  EC50: 8.5 to 12.8 µM

## CCOC(=O)CN(C)C(=O)c1nn(-c2nc(-c3cccc(OC)c3)c(C(C)C)s2)c2ccc(C(F)(F)F)cc12 [Structure 48]
[1]
  Compound Solubility DMSO: half/less
AU565
  EC50: 12 to 18 µM

## O=C(O)/C(Cc1ccccc1[N+](=O)[O-])=N/Nc1nc(-c2ccc(Cl)c(Cl)c2)cs1 [Structure 4EGI-1E, reference compound]
[2]; [6]
  EC50: 21 to 32 µM
[2]; AU-565, at 40 μM
  % Growth Inhibition/μM: 60/40%
HeLa Cells
  IC50: 48.1 µM

Reference: patent US9409901B2, “Compositions and methods for treating or preventing diseases or disorders associated with misregulated EIF4E” (Bantam Pharmaceutical, LLC, priority 2012, dated 2016)
